Laboratory results published in paper doi:10.1101/2020.08.03.235622v1 (bioRxiv, 2020).
Where two headings read alike, the source gives them in different places.

How the values were obtained:
flagella (fliC) = conditions: cited from earlier work
[1] = test system: P. aeruginosa T3SS gene transcription (exoT, exoS, dsbA); assay: qPCR of T3SS genes in P. aeruginosa; type: cell-based, Pseudomonas aeruginosa; conditions: 60 μM cyclic peptomer; for transcription of exoT: PA103, low calcium, 50 μM MBX1641, 3 hrs
[2] = test system: P. aeruginosa PAO1 T3SS (ExoS, ExsE); type: cell-based, Pseudomonas aeruginosa
P. aeruginosa PA103 T3SS = type: cell-based, Pseudomonas aeruginosa
Salmonella SPI-1 T3SS = type: cell-based, Salmonella enterica Typhimurium
HeLa cells = assay: Host cell viability by LDH release; type: cell-based, human; conditions: 9 μM, infected HeLa cells

Compound: O=[N+]([O-])c1cc(CN2CCN(c3ccccc3)CC2)c(O)c2ncccc12 [INP1750]
- lowest known inhibitory concentration (~), fliC/fla (flagella (fliC)): ~80 µM

Compound: O=[N+]([O-])c1cc(CN2CCN(c3ccc(F)cc3)CC2)c(O)c2ncccc12 [INP1855]
- lowest known inhibitory concentration (~), fliC/fla (flagella (fliC)): ~30 µM

Compound: CC(Oc1ccc(Cl)cc1Cl)C(=O)NCc1ccc2c(c1)OCO2 (centres unmarked) [MBX1641, reference compound]
- transcription of exoT [1]: did

Compound: Propylamine, Benzylamine, D-Leu, L-Ile, L-Leu, and D-Phe (PBDLLD) (head to tail) [1EpDN]
- amount of secreted ExoS [2]: significantly reduced
- transcription of exoT [1]: did not inhibit transcription of exoT
- IC50 (P. aeruginosa PA103 T3SS; read-out: IC50, inhibition of T3SS effector (ExoU) secretion in P. aeruginosa): ~8 µM

Compound: Propylamine, Benzylamine, L-Leu, L-Ile, D-Leu, and D-Phe (PBLLDD) (head to tail) [4EpDN]
- concentration at which inhibition of SipA secretion was observed (Salmonella SPI-1 T3SS): ~ 1.4 μM
- concentration at which inhibition of SipC secretion was observed (Salmonella SPI-1 T3SS): ~ 1 μM
- amount of secreted ExoS [2]: significantly reduced
- secretion of the regulator ExsE [2]: did not significantly impact secretion
- expression of the effectors exoS and exoT ([1]; P. aeruginosa PAO1 lacking all known efflux pumps, 3 hrs): did not affect expression
- T3SS inhibitory activity (ExoU secretion), in words (P. aeruginosa PA103 T3SS): improved activity
- IC50 (P. aeruginosa PA103 T3SS; read-out: IC50, ExoU secretion (PA, Psc/Ysc)): 3.9 µM
- host cell viability as assayed by LDH release (HeLa cells): without affecting host cell viability
